Measured values: publication PMC9381478, “A context-dependent and disordered ubiquitin-binding motif” (Cellular and Molecular Life Sciences: CMLS, 2022)
“Also recorded” adds a separate entry of the source.

How the values were obtained:
[1] = molecular target: T1, ubiquitin (Schizosaccharomyces pombe, UniProt P0CH06); assay: NMR titration of 15N-ubiquitin (1H-15N HSQC chemical shift perturbations); type: binding, S. pombe; conditions: for Kd: peptide or protein titrated into 100 µM 15N-ubiquitin, 20 mM NaH2PO4, 150 mM NaCl, 5 mM TCEP, pH 7.5, global fit of CSPs to one-site-binding model
T1 construct: plasmid coding for S. pombe ubiquitin with an N-terminal 6xhistidine-tag, TEV-cleavage site as well as an N-terminal free cysteine; made in house; host or cells: E. coli BL21(DE3)
Description: For interaction of the peptides with ^15N-ubiquitin, the lyophilized peptides were dissolved in MilliQ water and pH adjusted to 7.5. […] For the titrations of ubiquitin with each peptide, except the WT Dss1 peptide, 100 µM ubiquitin in NMR buffer was measured as one end point, and the 1 mM peptide and 100 µM ubiquitin as the other. Then, the peptide sample was titrated into the ubiquitin sample with titration points at 0, 50, 150, 300, 400, 500 and 1000 µM peptide. […] NMR samples were centrifuged 13.000×g for 5 min and transferred to either single-use 5 mm NMR tubes (Bruker) or 3 mm (Shigemi). To prepare NMR samples of ^15 N-labeled ubiquitin with full-length Dss1 and variants, lyophilized proteins were dissolved directly in the NMR buffer. The variants were each dissolved in 510 µL NMR buffer with 100 µM ubiquitin. The concentration of Dss1 in the NMR sample was determined by measuring the absorbance at 280 nm on a ND-1000 NanoDrop spectrophotometer, calibrated with the NMR buffer with 100 µM ubiquitin. The concentration of Dss1 varied between variants, depending on the purification yield. For all titrations, seven points of varying Dss1 concentration were recorded. To prepare NMR samples of ^15N-labeled ubiquitin with Spd1, Spd1 was buffer exchanged to MilliQ using a 3 kDa cut-off Amicon Ultra-0.5 ml centrifugal filter (Merk Millipore), lyophilized and resuspended in NMR buffer with 100 µM ubiquitin. […] For experiments with ubiquitin, 200 µL 1 mM ubiquitin was buffer exchanged to MilliQ water using a 3 kDa cut-off Amicon Ultra-0.5 ml centrifugal filter (Merk Millipore), lyophilized, and subsequently resuspended in 100 µL NMR buffer with 1 mM Dss1 for a final ubiquitin concentration of 2 mM and 1 mM, respectively. All samples were transferred to 3 mm (Shigemi) NMR tubes.
All NMR spectra were recorded on Bruker Avance III HD 600 MHz spectrometer with a Bruker proton-optimized quadruple resonance NMR ‘inverse’ (QCI) cryoprobe, a Bruker Avance III HD 750 MHz spectrometer with a Bruker proton-optimized triple resonance NMR ‘inverse’ (TCI) cryoprobe and a Bruker Avance Neo 800 MHz spectrometer with a Bruker carbon/nitrogen-optimized triple-resonance NMR 'observe' (TXO) cryoprobe. […] All spectra were zero-filled, apodized using cosine bells in all dimensions, Fourier transformed, and the zero-order phase was corrected manually using either nmrDraw, a component of NmrPipe or qMDD if spectra were recorded using non-linear-sampling (NLS). All spectra were analysed using the Analysis software.
The CSPs were fitted to a one-site-binding model using global fit, and the Kd-values are extracted using Eq. 2.2 Δδobs=Δδmax∙Pt+Lt+Kd-Pt+Lt+Kd^2-4Pt∙Lt^1/2/2∙Pt.
Peaks giving rise to large uncertainties in the fit, either due to weak signals or overlap, were removed after a first iteration of fitting, and the fit repeated on the remaining dataset.

[2] = molecular target: T1, ubiquitin; assay: Membrane-bound peptide array probed with Cy5-labeled ubiquitin; type: binding, S. pombe; conditions: 15-mer peptides on cellulose membrane, 0.4 µM Cy5-labeled ubiquitin, 1 h, RT, fluorescence at 650 nm, mean of two membranes; compared with Pep1
Source text: Two identical membrane-bound peptide arrays, each with 50 peptide spots, were purchased from JPT peptide technologies as PepSpots™ (Germany). Here, peptides are covalently attached to a cellulose membrane with the C-terminal amino acid through a β-alanine. Each peptide spot contained approximately 2.44·10^15 molecules or 4 nmol peptides. For detection of binding, ubiquitin was labeled at the N-terminal free cysteine with Cy5 maleimide fluorophore (GE Healthcare), which has an emission maximum at 666 nm. Ubiquitin or His6-SUMO (50 µL–70 µM) was reduced with 10 times molar excess tris(2-carboxyethyl)phosphine (TCEP), and incubated with one aliquot of 10 µL, 3 mM Cy5 in dimethyl sulfoxide (DMSO) at RT for 2 h. Excess Cy5 was neutralized with 10 µL 14.3 mM βME, and the mixture was separated on a gravity flow Sepharose column (from NanoTemper Monolith Protein Labeling Kit Red-NHS (Amine Reactive)). The column was equilibrated with tris buffered saline with Tween 20 (TBS-T) buffer (20 mM Tris, 150 mM NaCl, 1 mM EDTA, 500 µL/L Tween 20, pH 7). The ubiquitin/SUMO-Cy5 mixture (73.5 µL) was loaded on the column, followed by 426.5 µL TBS-T buffer. To evaluate the concentration of ubiquitin and Cy5, the absorbance at 280 nm and 650 nm of each fraction was measured on a ND-1000 NanoDrop spectrophotometer (Thermo Fischer Scientific). Fractions where the absorbance peaked at both wavelengths simultaneously were pooled and used for the peptide array.
All wash and incubation steps were performed at RT on a rocking table. The membranes were first washed with 25 mL TBS-T buffer two times for 5 min. Next, the membranes were blocked with blocking buffer (TBS-T with 5% (w/v) skim milk powder) for 1 h and washed for 10 min in TBS-T buffer and the background signal at 650 nm acquired using a Chemidoc imager (Bio-Rad). […] After the incubation, the membranes were washed with TBS-T buffer for five times 5 min and the fluorescence signal at 650 nm acquired on the Chemidoc imager. The fluorescent signal was quantified using the image processing software ImageJ. The intensity from each peptide spot was read using the Microarray Profile plugin. The intensities acquired before adding ubiquitin were subtracted from the signals acquired after. Finally, the mean between the corresponding values from the two membranes was calculated and reported as the signal intensity for each peptide.

[3] = molecular target: ubiquitin; conditions: read-out: Kd of known UIM sequence for ubiquitin; cited from earlier work
[4] = system: SUMO; assay: Membrane-bound peptide array probed with Cy5-labeled SUMO; type: binding; conditions: 15-mer peptides on cellulose membrane, 0.4 µM Cy5-labeled His6-SUMO, 1 h, RT, fluorescence at 650 nm, mean of two membranes
Source text: Two identical membrane-bound peptide arrays, each with 50 peptide spots, were purchased from JPT peptide technologies as PepSpots™ (Germany). Here, peptides are covalently attached to a cellulose membrane with the C-terminal amino acid through a β-alanine. Each peptide spot contained approximately 2.44·10^15 molecules or 4 nmol peptides. For detection of binding, ubiquitin was labeled at the N-terminal free cysteine with Cy5 maleimide fluorophore (GE Healthcare), which has an emission maximum at 666 nm. […] To evaluate the concentration of ubiquitin and Cy5, the absorbance at 280 nm and 650 nm of each fraction was measured on a ND-1000 NanoDrop spectrophotometer (Thermo Fischer Scientific). Fractions where the absorbance peaked at both wavelengths simultaneously were pooled and used for the peptide array.
All wash and incubation steps were performed at RT on a rocking table. […] After the incubation, the membranes were washed with TBS-T buffer for five times 5 min and the fluorescence signal at 650 nm acquired on the Chemidoc imager. The fluorescent signal was quantified using the image processing software ImageJ. The intensity from each peptide spot was read using the Microarray Profile plugin. […] Finally, the mean between the corresponding values from the two membranes was calculated and reported as the signal intensity for each peptide.

[5] = molecular target: SUMO; conditions: read-out: SUMO affinity of known SUMO interacting motif; cited from earlier work
Source text: To investigate the binding specificity, we tested the peptides for interaction with the structurally related small ubiquitin-like modifier (SUMO), a ubiquitin-like protein also used as posttranslational modification, but involved in different signaling pathways. SUMO binds to extended stretches of residues with an interaction motif consisting of φφXφ, often followed by negatively charged residues or phosphorylation sites, where φ represents hydrophobic residues. Thus, known SUMO binding features partly overlap the features extracted above. Fluorescently labeled SUMO was added to ...

T1 sequence (P0CH06 1-76 limits assumed): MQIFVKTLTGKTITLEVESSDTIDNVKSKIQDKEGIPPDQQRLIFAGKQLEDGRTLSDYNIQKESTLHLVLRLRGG

Substance | emission intensity of bound Cy5-ubiquitin (apparent affinity) [2] | also measured
Ac-DDTLWWEDDWWDDED-NH2 [PepDWD] |  | Kd [1]: 0.6 ± 0.03 mM
Ac-DDTLWWENNWWDDED-NH2 [Pep42] | increased emission intensity; also recorded: highest emission intensity | Kd [1]: 1.2 ± 0.09 mM
Ac-DLWEDDWDLWEDDWD-NH2 [PepDMD] |  | Kd [1]: 0.48 ± 0.04 mM
Ac-DLWENNWDLWENNWD-NH2 [Pep43] | highest emission intensity | Kd [1]: 1.3 ± 0.12 mM
Ac-GDDTLWENNWDDEDI-NH2 [Pep1] |  | chemical shift perturbations (CSPs) induced in the HSQC spectrum of ubiquitin ([1]; 1 mM 15-mer peptide added to 100 µM 15N-ubiquitin (120 µM for POLIIBP and ZFB)): much larger CSPs; Kd [1]: 3 ± 0.2 mM
GDDTFWENNWDDEDI [Pep5, 15-mer variant of Dss1 UBS1, peptide array] | increased emission intensity | 
GDDTLWETNWDDEDI [Pep39, 15-mer variant of Dss1 UBS1, peptide array] | enhanced emission; also recorded: increased ubiquitin affinity | 
GDDTLWEVNWDDEDI [Pep38, 15-mer variant of Dss1 UBS1, peptide array] | enhanced emission; also recorded: increased ubiquitin affinity | 
GDDTWWENNWDDEDI [Pep11, 15-mer variant of Dss1 UBS1, peptide array] | increased emission intensity | 
GEAEERVVVISSSED [Pep48] |  | emission intensity of bound Cy5-SUMO (apparent affinity) [4]: lower-than-average affinity; Kd [5]: ~100 µM
LKVDVIDLTIESSSD [Pep47] |  | emission intensity of bound Cy5-SUMO (apparent affinity) [4]: high apparent affinity; Kd [5]: 1 µM

More lines, main results first:

emission intensity of bound Cy5-ubiquitin (apparent affinity) [2] | Substance | also measured
only weak emission intensities | EDPDLKAAIQESLRE [Pep45, reference compound] | Kd [3]: 20 µM
increased emission intensity | GDDDLWENNWDDEDI [Pep25, 15-mer variant of Dss1 UBS1, peptide array] | 
increased emission intensity | GDDTDWENNWDDEDI [Pep8, 15-mer variant of Dss1 UBS1, peptide array] | 
increased emission intensity | GDDTEWENNWDDEDI [Pep9, 15-mer variant of Dss1 UBS1, peptide array] | 
reduced binding | GDDTLWAAAWDDEDI [Pep36, 15-mer variant of Dss1 UBS1, peptide array] | 
increased emission intensity | GDDTLWEDDWDDEDI [Pep20, 15-mer variant of Dss1 UBS1, peptide array] | 
increased emission intensity | GDDTLWENNWWDDED [Pep41, 15-mer variant of Dss1 UBS1, peptide array] | 
enhanced emission | GDDTLWEPNWDDEDI [Pep40, 15-mer variant of Dss1 UBS1, peptide array] | 
no or negative effects on binding | GDDTLWPNPWDDEDI [Pep37, 15-mer variant of Dss1 UBS1, peptide array] | 
only weak emission intensities | IQEDWELAERLQREE [Pep46, reference compound] | Kd [3]: 100 µM
